One data set has as its target α1-adrenergic receptor. Put plainly: Displacement of specific binding of [3H]prazosin from rat forebrain membranes. The conditions noted are these: IC50 for displacement of specific binding, 0.2 nM radioligand. Here is the method: Compounds of the formula I have selectivity for NR^2B subunit-containing NMDA receptors over α1-adrengergic receptors. Affinity for the NR^2B subunit containing NMDA receptor is measured as the IC50 for displacement of specific binding of racemic [^3H] (+)-(1S, 2S)-1-(4-hydroxy-phenyl)-2-(4-hydroxy-4-phenylpiperidino)-1-propanol from rat forebrain membranes (described above). Affinity for the α1-adrengergic receptor is defined as the IC50 for displacement of specific binding of racemic [^3H]prazosin from rat brain membranes, measured as described by Greengrass and Bremner (Binding Characteristics of [3H]prazosin to Rat Brain α-Adrenergic Receptors, European Journal of Pharmacology, 55, 323-326, (1979)).
Forebrains of adult male Sprague Dawley rats are homogenized in 20 volumes of ice cold 50 mM Tris/HCl buffer (pH 7.7). The homogenate is centrifuged at 50,000×g for 10 minutes at 4° C. The pellet is resuspended and centrifuged under identical conditions and the final pellet is resuspended in 80 volumes of 50 mM Tris/HCl (pH 8.0) at 4° C.
For binding assays, compounds under study are added at various concentrations to 500 μg membrane protein in 1 ml of 50 mM Tris/HCl buffer, followed by [^3H]prazosin (Amersham, specific activity 33 Ci/mmol, 0.2 nM final concentration). Following incubation for 30 min at 25° C. in a shaking water bath, samples are filtered onto Whatman GFB glass fiber filters using a MB-48R Cell Harvester (Brandel Research and Development Laboratories, Gaithersburg Md.). Filters are washed three times for 10 s with ice cold Tris HCl buffer and the radioactivity trapped on the filter quantified by liquid scintillation spectroscopy. Nonspecific binding is determined in parallel incubations containing 100 nM prazosin. Specific binding is defined as total binding minus nonspecific binding.

In data set [1] the target is T1, NR2B subunit containing NMDA receptor (Rattus norvegicus, UniProt P35439+Q00960).
T1 construct: (+)-(1S, 2S)-1-(4-hydroxy-phenyl)-2-(4-hydroxy-4-phenylpiperidino)-1-propanol from rat forebrain membranes; from tissue; host or cells: forebrain membranes of adult male CD rats
Put plainly: Displacement of specific binding of racemic [3H](+)-(1S,2S)-1-(4-hydroxy-phenyl)-2-(4-hydroxy-4-phenylpiperidino)-1-propanol ([3H]CP-101,606) from rat forebrain membranes. The conditions noted are these: ratio of the IC50s; greater than three is considered selective for NR2B over α1. Here is the method:
This affinity is assessed in a radioligand binding assay as described later in this application.
This affinity is assessed in a radioligand binding assay as described below.
The binding of racemic [^3H] […] Forebrains of adult male CD rats are homogenized in 0.32M sucrose at 4° C. The crude nuclear pellet is removed by centrifugation at 1,000×g for 10 minutes, and the supernatant centrifuged at 17,000×g for 25 minutes. The resulting pellet is resuspended in 5 mM Tris acetate pH 7.4 at 4° C. for 10 minutes to lyse cellular particles and again centrifuged at 17,000×g. The resulting pellet is washed twice in Tris acetate, resuspended at 10 mg protein/ml and stored at −20° C. until use.
For binding assays, membranes are thawed, homogenized, and diluted to 0.5 mg protein/ml with 50 mM Tris HCl, pH 7.4. Compounds under study are added at various concentrations followed by racemic [^3H] […] Following incubation for 20 min at 30° C. in a shaking water bath, samples are filtered onto Whatman GFB glass fiber filters using a MB-48R Cell Harvester (Brandel Research and Development Laboratories, Gaithersburg Md.). Filters are washed for 10 s with ice cold Tris HCl buffer and the radioactivity trapped on the filter quantified by liquid scintillation spectroscopy. Nonspecific binding is determined in parallel incubations containing 100 μM racemic (+)-(1 S, 2S)-1-(4-hydroxy-phenyl)-2-(4-hydroxy-4-phenylpiperidino)-1-propanol. Specific binding is defined as total binding minus nonspecific binding.
Affinity for the NR^2B subunit containing NMDA receptor is measured as the IC50 for displacement of specific binding of racemic [^3H] […] Affinity for the α1-adrengergic receptor is defined as the IC50 for displacement of specific binding of racemic [^3H]prazosin from rat brain membranes, measured as described by Greengrass and Bremner (Binding Characteristics of [3H]prazosin to Rat Brain α-Adrenergic Receptors, European Journal of Pharmacology, 55, 323-326, (1979)).

T1 sequence (Q00960 27-1482, other chains not shown): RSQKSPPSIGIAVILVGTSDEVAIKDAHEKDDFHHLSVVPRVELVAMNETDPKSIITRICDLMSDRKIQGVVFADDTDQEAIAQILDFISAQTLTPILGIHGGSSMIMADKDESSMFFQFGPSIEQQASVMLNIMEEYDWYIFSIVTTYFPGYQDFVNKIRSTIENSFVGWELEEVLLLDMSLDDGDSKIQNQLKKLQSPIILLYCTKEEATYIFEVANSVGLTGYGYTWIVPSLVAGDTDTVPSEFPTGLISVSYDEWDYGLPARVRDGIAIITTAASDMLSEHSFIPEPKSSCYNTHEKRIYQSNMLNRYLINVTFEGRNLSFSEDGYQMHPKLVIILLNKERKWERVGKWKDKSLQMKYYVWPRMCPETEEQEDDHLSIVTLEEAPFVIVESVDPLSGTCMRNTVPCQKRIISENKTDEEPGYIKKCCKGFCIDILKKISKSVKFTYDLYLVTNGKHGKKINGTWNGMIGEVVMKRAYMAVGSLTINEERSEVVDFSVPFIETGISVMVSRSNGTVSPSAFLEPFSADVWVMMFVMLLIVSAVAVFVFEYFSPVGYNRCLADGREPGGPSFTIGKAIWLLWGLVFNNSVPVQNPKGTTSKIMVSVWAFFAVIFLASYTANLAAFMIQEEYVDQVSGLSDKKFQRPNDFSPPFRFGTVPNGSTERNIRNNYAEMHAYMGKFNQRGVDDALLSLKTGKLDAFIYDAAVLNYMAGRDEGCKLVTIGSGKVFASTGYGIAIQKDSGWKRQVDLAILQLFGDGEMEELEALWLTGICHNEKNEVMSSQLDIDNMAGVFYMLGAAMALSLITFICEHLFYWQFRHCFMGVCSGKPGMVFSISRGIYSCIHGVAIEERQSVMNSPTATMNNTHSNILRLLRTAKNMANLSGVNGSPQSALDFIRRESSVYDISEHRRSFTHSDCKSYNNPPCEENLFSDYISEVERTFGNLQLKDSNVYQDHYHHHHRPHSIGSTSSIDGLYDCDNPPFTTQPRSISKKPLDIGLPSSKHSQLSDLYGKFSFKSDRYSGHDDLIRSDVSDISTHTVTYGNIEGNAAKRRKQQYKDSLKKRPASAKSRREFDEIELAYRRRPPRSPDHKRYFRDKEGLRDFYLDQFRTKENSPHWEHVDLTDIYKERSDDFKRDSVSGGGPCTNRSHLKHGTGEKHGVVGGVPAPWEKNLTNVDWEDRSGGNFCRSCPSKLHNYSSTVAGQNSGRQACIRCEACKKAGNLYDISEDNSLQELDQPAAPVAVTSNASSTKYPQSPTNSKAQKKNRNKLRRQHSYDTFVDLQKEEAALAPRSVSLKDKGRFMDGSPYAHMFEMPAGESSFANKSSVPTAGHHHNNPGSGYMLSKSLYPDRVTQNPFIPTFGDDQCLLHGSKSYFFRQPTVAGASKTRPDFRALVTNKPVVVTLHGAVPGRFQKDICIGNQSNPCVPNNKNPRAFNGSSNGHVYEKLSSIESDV

Take `Oc1ccc2c(c1)OCC(N1CCC(O)(c3ccc(F)cc3)CC1)[C@H]2O` (stereo in doubt): the melting point (as a rule, the temperature, or range, at which the solid turns liquid) is 159 to 160 °C.
For `COc1cc([C@H](O)[C@H](C)N2CCC(O)(c3ccccc3)CC2)ccc1O` [(1S, 2S)-1-(4-hydroxy-3-methoxyphenyl)-2-(4-hydroxy-4-phenylpiperidino)-1-propanol], on α1-adrenergic receptor, the IC50 – broadly, the point on the concentration scale where inhibition reaches its midpoint – was found to be 8.1 µM. Also, the “Ratio [^3H]Prazosin/[^3H] (+)-(1S, 2S)-1-(4-hydroxy-phenyl)-2-(4-hydroxy-4-phenylpiperidino)-1-propanol” value (“Ratio [^3H]Prazosin/[^3H]” for short) in data set [1] is listed as 86.
As for `Oc1ccc2c(c1)OC[C@@H](N1CCC(O)(c3ccc(F)cc3)CC1)[C@H]2O` [(3R, 4S)-3-(4-(4-fluorophenyl)-4-hydroxypiperidin-1-yl)-chroman-4,7-diol], the IC50 on α1-adrenergic receptor is more than 10 µM. The “Ratio [^3H]Prazosin/[^3H]” value in data set [1] is reported as “≧555”.
Take `C[C@@H]([C@@H](O)c1ccc(O)cc1)N1CCC(O)(c2ccccc2)CC1` [(+)-(1S, 2S)-1-(4-hydroxy-phenyl)-2-(4-hydroxy-4-phenylpiperidino)-1-propanol]: the IC50 on α1-adrenergic receptor came out at 19.5 µM.
For the molecule `OC(CN1CCC(Cc2ccc(F)cc2)CC1)c1ccc(Cl)cc1` (centres unmarked) [Eliprodil, reference compound], the IC50 on α1-adrenergic receptor came to 0.98 ± 0.22 µM. In data set [1], the “Ratio [^3H]Prazosin/[^3H]” value is reported as 2.2.

Values taken from patent publication US6821985B2, “Pharmaceutical combinations for the treatment of stroke and traumatic brain injury” (Pfizer, Inc., priority 2000, dated 2004).
